Laboratory results published in the NIST ThermoML archive (doi:10.1016/j.jct.2016.07.005).

Assay: xn = mol fraction of the nth substance listed
Conditions: 100 kPa, Liquid; for viscosity: Concentric cylinders viscometry; for mass density: Vibrating tube method

CN1CCC[C@H]1c1cccnc1 [(-)-3-(N-methylpyrrolidino)pyridine] + CCC(C)O
Conditions | mass density [kg/m3] | viscosity [mPa·s]
293.15 K, x1 = 0.1 | 841.874 | 3.496
293.15 K, x1 = 0.2036 | 873.003 | 3.46
293.15 K, x1 = 0.3 | 898.284 | 3.593
293.15 K, x1 = 0.4 | 921.306 | 3.845
293.15 K, x1 = 0.5 | 941.501 | 4.157
293.15 K, x1 = 0.6 | 959.218 | 4.476
293.15 K, x1 = 0.6956 | 974.099 | 4.734
293.15 K, x1 = 0.8 | 988.293 | 4.907
293.15 K, x1 = 0.9 | 1000.07 | 4.909
293.15 K, x1 = 1 | 1010.23 | 4.694
298.15 K, x1 = 0.1 | 837.728 | 2.96
298.15 K, x1 = 0.2036 | 868.857 | 2.981
298.15 K, x1 = 0.3 | 894.137 | 3.11
298.15 K, x1 = 0.4 | 917.159 | 3.319
298.15 K, x1 = 0.5 | 937.354 | 3.566
298.15 K, x1 = 0.6 | 955.075 | 3.813
298.15 K, x1 = 0.6956 | 969.963 | 4.015
298.15 K, x1 = 0.8 | 984.171 | 4.158
298.15 K, x1 = 0.9 | 995.971 | 4.179
298.15 K, x1 = 1 | 1006.16 | 4.048
303.15 K, x1 = 0.1 | 833.532 | 2.521
303.15 K, x1 = 0.2036 | 864.676 | 2.579
303.15 K, x1 = 0.3 | 889.965 | 2.704
303.15 K, x1 = 0.4 | 912.993 | 2.881
303.15 K, x1 = 0.5 | 933.194 | 3.08
303.15 K, x1 = 0.6 | 950.921 | 3.277
303.15 K, x1 = 0.6956 | 965.82 | 3.439
303.15 K, x1 = 0.8 | 980.047 | 3.558
303.15 K, x1 = 0.9 | 991.873 | 3.591
303.15 K, x1 = 1 | 1002.1 | 3.518
308.15 K, x1 = 0.1 | 829.273 | 2.162
308.15 K, x1 = 0.2036 | 860.452 | 2.244
308.15 K, x1 = 0.3 | 885.762 | 2.367
308.15 K, x1 = 0.4 | 908.808 | 2.523
308.15 K, x1 = 0.5 | 929.021 | 2.691
308.15 K, x1 = 0.6 | 946.761 | 2.853
308.15 K, x1 = 0.6956 | 961.675 | 2.987
308.15 K, x1 = 0.8 | 975.925 | 3.09
308.15 K, x1 = 0.9 | 987.783 | 3.128
308.15 K, x1 = 1 | 998.055 | 3.088
313.15 K, x1 = 0.1 | 824.949 | 1.875
313.15 K, x1 = 0.2036 | 856.182 | 1.975
313.15 K, x1 = 0.3 | 881.53 | 2.094
313.15 K, x1 = 0.4 | 904.598 | 2.232
313.15 K, x1 = 0.5 | 924.831 | 2.373
313.15 K, x1 = 0.6 | 942.588 | 2.508
313.15 K, x1 = 0.6956 | 957.521 | 2.62
313.15 K, x1 = 0.8 | 971.798 | 2.713
313.15 K, x1 = 0.9 | 983.692 | 2.761
313.15 K, x1 = 1 | 994.014 | 2.758
318.15 K, x1 = 0.1 | 820.559 | 1.627
318.15 K, x1 = 0.2036 | 851.865 | 1.734
318.15 K, x1 = 0.3 | 877.259 | 1.848
318.15 K, x1 = 0.4 | 900.359 | 1.974
318.15 K, x1 = 0.5 | 920.616 | 2.099
318.15 K, x1 = 0.6 | 938.394 | 2.214
318.15 K, x1 = 0.6956 | 953.35 | 2.308
318.15 K, x1 = 0.8 | 967.662 | 2.383
318.15 K, x1 = 0.9 | 979.601 | 2.419
318.15 K, x1 = 1 | 989.984 | 2.411
323.15 K, x1 = 0.1 | 816.09 | 1.434
323.15 K, x1 = 0.2036 | 847.491 | 1.55
323.15 K, x1 = 0.3 | 872.943 | 1.662
323.15 K, x1 = 0.4 | 896.089 | 1.778
323.15 K, x1 = 0.5 | 916.374 | 1.888
323.15 K, x1 = 0.6 | 934.178 | 1.989
323.15 K, x1 = 0.6956 | 949.16 | 2.071
323.15 K, x1 = 0.8 | 963.511 | 2.141
323.15 K, x1 = 0.9 | 975.504 | 2.183
323.15 K, x1 = 1 | 985.962 | 2.195

CN1CCC[C@H]1c1cccnc1 [(-)-3-(N-methylpyrrolidino)pyridine] + OCCCO
Conditions | mass density [kg/m3] | viscosity [mPa·s]
293.15 K, x1 = 0.1 | 1049.36 | 63.86
293.15 K, x1 = 0.1999 | 1045.43 | 63.55
293.15 K, x1 = 0.3 | 1041.3 | 55.97
293.15 K, x1 = 0.3994 | 1037.05 | 44.97
293.15 K, x1 = 0.5 | 1032.67 | 33.15
293.15 K, x1 = 0.6004 | 1028.25 | 22.75
293.15 K, x1 = 0.7 | 1023.76 | 14.91
293.15 K, x1 = 0.8 | 1019.33 | 9.805
293.15 K, x1 = 0.9 | 1014.74 | 6.894
293.15 K, x1 = 1 | 1010.23 | 4.694
298.15 K, x1 = 0.1 | 1045.96 | 48.97
298.15 K, x1 = 0.1999 | 1041.83 | 48.13
298.15 K, x1 = 0.3 | 1037.55 | 42.26
298.15 K, x1 = 0.3994 | 1033.17 | 34.05
298.15 K, x1 = 0.5 | 1028.72 | 25.35
298.15 K, x1 = 0.6004 | 1024.24 | 17.71
298.15 K, x1 = 0.7 | 1019.71 | 11.93
298.15 K, x1 = 0.8 | 1015.26 | 8.105
298.15 K, x1 = 0.9 | 1010.67 | 5.832
298.15 K, x1 = 1 | 1006.16 | 4.048
303.15 K, x1 = 0.1 | 1042.55 | 37.97
303.15 K, x1 = 0.1999 | 1038.21 | 36.9
303.15 K, x1 = 0.3 | 1033.78 | 32.31
303.15 K, x1 = 0.3994 | 1029.3 | 26.12
303.15 K, x1 = 0.5 | 1024.77 | 19.64
303.15 K, x1 = 0.6004 | 1020.24 | 13.95
303.15 K, x1 = 0.7 | 1015.68 | 9.624
303.15 K, x1 = 0.8 | 1011.2 | 6.722
303.15 K, x1 = 0.9 | 1006.61 | 4.943
303.15 K, x1 = 1 | 1002.1 | 3.518
308.15 K, x1 = 0.1 | 1039.14 | 29.84
308.15 K, x1 = 0.1999 | 1034.59 | 28.71
308.15 K, x1 = 0.3 | 1030.01 | 25.12
308.15 K, x1 = 0.3994 | 1025.41 | 20.41
308.15 K, x1 = 0.5 | 1020.81 | 15.5
308.15 K, x1 = 0.6004 | 1016.23 | 11.19
308.15 K, x1 = 0.7 | 1011.64 | 7.885
308.15 K, x1 = 0.8 | 1007.15 | 5.621
308.15 K, x1 = 0.9 | 1002.55 | 4.2
308.15 K, x1 = 1 | 998.055 | 3.088
313.15 K, x1 = 0.1 | 1035.71 | 23.69
313.15 K, x1 = 0.1999 | 1030.96 | 22.59
313.15 K, x1 = 0.3 | 1026.23 | 19.74
313.15 K, x1 = 0.3994 | 1021.52 | 16.11
313.15 K, x1 = 0.5 | 1016.85 | 12.36
313.15 K, x1 = 0.6004 | 1012.22 | 9.06
313.15 K, x1 = 0.7 | 1007.6 | 6.513
313.15 K, x1 = 0.8 | 1003.09 | 4.749
313.15 K, x1 = 0.9 | 998.498 | 3.625
313.15 K, x1 = 1 | 994.014 | 2.758
318.15 K, x1 = 0.1 | 1032.27 | 19.28
318.15 K, x1 = 0.1999 | 1027.32 | 18.26
318.15 K, x1 = 0.3 | 1022.43 | 15.95
318.15 K, x1 = 0.3994 | 1017.62 | 13.08
318.15 K, x1 = 0.5 | 1012.88 | 10.14
318.15 K, x1 = 0.6004 | 1008.21 | 7.559
318.15 K, x1 = 0.7 | 1003.56 | 5.549
318.15 K, x1 = 0.8 | 999.04 | 4.128
318.15 K, x1 = 0.9 | 994.453 | 3.18
318.15 K, x1 = 1 | 989.984 | 2.411
323.15 K, x1 = 0.1 | 1028.82 | 15.87
323.15 K, x1 = 0.1999 | 1023.66 | 14.94
323.15 K, x1 = 0.3 | 1018.63 | 13.05
323.15 K, x1 = 0.3994 | 1013.72 | 10.76
323.15 K, x1 = 0.5 | 1008.9 | 8.437
323.15 K, x1 = 0.6004 | 1004.18 | 6.389
323.15 K, x1 = 0.7 | 999.506 | 4.782
323.15 K, x1 = 0.8 | 994.989 | 3.625
323.15 K, x1 = 0.9 | 990.406 | 2.837
323.15 K, x1 = 1 | 985.962 | 2.195
